The text below walks through data of patent US20050197350A1, “Novel quinoline, tetrahydroquinazoline, and pyrimidine derivatives and methods of treatment related to the use thereof” (TAISHO PHARMACEUTICAL CO., LTD., priority 2003, published 2005).

This test deals with MCH receptor (Homo sapiens, UniProt Q99705). The test is described as follows: High throughput functional screening FLIPR/FDSS6000 (intracellular Ca2+ evoked by MCH). Conditions: FLIPR/FDSS, antagonist activity vs 50 nM MCH, class by percent of control at 10^−7 M or IC50, read-out: class. The class given is cell-based. A digest of the protocol:
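For antagonist testing, compound-treated cells (30 min, 37 °C) were stimulated with 50 nM MCH and intracellular Ca2+ followed by Fluo4 fluorescence on FLIPR/FDSS6000. Receptor was a constitutively active, non-endogenous MCH receptor; dye loading 4 μM Fluo4-AM, 1 h, 37 °C.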

SMILES strings stand for the structures. Structures can show the parent of a compound that is named as a salt. Where two headings read alike, the source gives them in different places.

As for `CNc1nc(N[C@H]2CC[C@@H](NC(=O)c3ccc(F)c(Cl)c3)CC2)ncc1C` [Example 3386, 3-Chloro-4-fluoro-N-[cis-4-(5-methyl-4-methylamino-pyrimidin-2-ylamino)-cyclohexyl]-benzamide hydrochloride], the IC50 (table after the classification) was below 50 nM.

For `Cc1cc(N[C@H]2CC[C@@H](NC(=O)c3ccc(Cl)cc3)CC2)nc2ccccc12` [Example 3172, 4-Chloro-N-[cis-4-(4-methyl-quinolin-2-ylamino)-cyclohexyl]-benzamide hydrochloride], the IC50 (table after the classification) is below 50 nM.

For `Cc1cnc(N[C@H]2CC[C@@H](NC(=O)Nc3ccccc3F)CC2)nc1N(C)C` [Example 3324, N-(cis-4-{[4-(dimethylamino)-5-methylpyrimidin-2-yl]amino}cyclohexyl)-N′-(2-fluorophenyl)urea], the IC50 lay in the range of 50 to 200 nM.

`Cc1cc(N[C@H]2CC[C@@H](NC(=O)c3ccc(Br)o3)CC2)nc2ccccc12` [Example 3083, 5-Bromo-furan-2-carboxylic acid-[cis-4-(4-methyl-quinolin-2-ylamino)-cyclohexyl]-amide hydrochloride]: for the setting “table after the classification”, the IC50 is below 50 nM.

For the compound `Cc1cnc(N[C@H]2CC[C@@H](NC(=O)Nc3ccccc3OC(F)(F)F)CC2)nc1N(C)C` [Example 3330, N-(cis-4-{[4-(dimethylamino)-5-methylpyrimidin-2-yl]amino}cyclohexyl)-N′-[2-(trifluoromethoxy)phenyl]urea], the IC50 is below 50 nM.

Take `O=C(N[C@H]1CC[C@@H](NCc2ccc3ccccc3n2)CC1)c1ccc(F)c(F)c1` [Example 3156, 3,4-Difluoro-N-{cis-4-[(quinolin-2-ylmethyl)-amino]-cyclohexyl}-benzamide dihydrochloride]: the IC50 (table after the classification) was above 200 nM.

For `Cc1cc(N(C)C)nc(N[C@H]2CC[C@@H](NC(=O)c3cccnc3Oc3ccccc3)CC2)n1` [Example 3126, N-[cis-4-(4-Dimethylamino-6-methyl-pyrimidin-2-ylamino)-cyclohexyl]-2-phenoxy-nicotinamide hydrochloride], the IC50 (table after the classification) was below 50 nM.

On to `Cc1cnc(N[C@H]2CC[C@@H](NC(=O)NCc3ccccc3)CC2)nc1N(C)C` [Example 3341, N-benzyl-N′-(cis-4-{[4-(dimethylamino)-5-methylpyrimidin-2-yl]amino}cyclohexyl)urea], for which the IC50 was 50 to 200 nM.

On to `Cc1cc(N(C)C)nc(N[C@H]2CC[C@@H](NC(=O)NC3(c4ccc(Cl)cc4)CC3)CC2)n1` [Example 3267, N-[1-(4-chlorophenyl)cyclopropyl]-N′-(cis-4-{[4-(dimethylamino)-6-methylpyrimidin-2-yl]amino}cyclohexyl)urea], for which the IC50 was below 50 nM.

On to `COc1ccc(S(=O)(=O)c2ncccc2C(=O)N[C@H]2CC[C@@H](Nc3nc(C)cc(N(C)C)n3)CC2)cc1` [Example 3380, N-(cis-4-{[4-(dimethylamino)-6-methylpyrimidin-2-yl]amino}cyclohexyl)-2-[(4-methoxyphenyl)sulfonyl]-nicotinamide], for which the IC50 is above 200 nM.

In the case of `Cc1cnc(N[C@H]2CC[C@@H](NC(=O)c3cccnc3S(=O)(=O)c3ccc(F)cc3)CC2)nc1N(C)C` [Example 3281, N-(cis-4-{[4-(dimethylamino)-5-methylpyrimidin-2-yl]amino}cyclohexyl)-2-[(4-fluorophenyl)sulfonyl]nicotinamide], the IC50 is below 50 nM.

As to `CN(C)c1ccnc(N[C@H]2CC[C@@H](NC(=O)c3cccnc3Oc3ccccc3)CC2)n1` [Example 3129, N-[cis-4-(4-Dimethylamino-pyrimidin-2-ylamino)-cyclohexyl]-2-phenoxy-nicotinamide hydrochloride], the IC50 (table after the classification) lay within 50 to 200 nM.

In the case of `Cc1cc(N(C)C)nc(N[C@H]2CC[C@@H](NC(=O)c3cccnc3S(=O)(=O)c3ccccc3Cl)CC2)n1` [Example 3369, 2-[(2-chlorophenyl)sulfonyl]-N-(cis-4-{[4-(dimethylamino)-6-methylpyrimidin-2-yl]amino}cyclohexyl)nicotinamide], the IC50 was in the range of 50 to 200 nM.
